Assay results as given in patent US20240376076A1, “INHIBITORS TARGETING UBIQUITIN SPECIFIC PROTEASE 7 (USP7)” (Dana-Farber Cancer Institute, Inc., priority 2021, published 2024).

What follows are compounds tested against T1, USP7, Active human recombinant protein (Homo sapiens, UniProt Q93009) (assay: USP7 assay (Ubiquitin-Rhodamine 110 enzymatic assay)). Settings: read-out: IC50.
T1 construct: purchased CP Lot; 20200225001
Format: biochemical
Method: Enzymatic Assays with Exemplary USP7 Irreversible Inhibitors
ND refers to not disclosed.
USP7, Active human recombinant protein (CP, Lot. 20200225001), Ubiquitin-Rhodamine 110 (Rh110) (BostonBiochem, Cat. No. U-555), DMSO (Sigma, Cat. N34869), DTT (Sangon Biotech, Cat. No. A620058-0005), […] Tris pH 8.0 (Sigma, Cat. No. T2694-1L), Tween-20 (Sigma, Cat. No. P2287-100ML), EDTA (Invitrogen, Cat. No. 15575020, BSA (Sigma, Cat. No. B2064-100G), 384-well assay plate (Corning, Cat. No. 3573), Echo Qualified 384-Well Polypropylene Microplate 2.0, Clear, Flat Bottom (LABCYTE, Cat. No. 001-14555).
Dilute the compounds to 400× of the final desired highest inhibitor concentration in reaction by 100% DMSO. For all compounds, transfer the compounds to one well in a 384-well Echo plate and serially dilute the compound by 3-fold dilution of 100% DMSO in the next well and so forth for a total of 10 concentrations by Precision. Add 30 μL of 100% DMSO to two empty wells for no compound control and no enzyme control in the same 384-well Echo plate. Make the plate as a source plate.
For USP7 assay, transfer 50 nL of each well from the source plate to a 384-well assay plate (OptiPlate TM-384 F black assay plates) by Echo 550 Liquid Handler.
Added appropriate amount of USP7 in 1× assay Buffer to prepare 2× enzyme solution (USP7 final concentration: 0.05 nM). Added appropriate amount of Ubiquitin-Rhodamine 110 in 1× assay Buffer to prepare 2× substrate solution (Ubiquitin-Rhodamine 110 final concentration: 190 nM). Added 10 μL of 2× enzyme solution to each reaction well of the 384-well assay plate, except for control wells without enzyme (add 10 μL of 1× Assay Buffer instead as for low control). […] Transferred 2× substrate solution to the assay plate. Added 10 μL of 2× substrate solution to each well of the 384-well assay plate to start reaction. Centrifuged at 1000 rpm for 1 min. Read the plate kinetically on SpectraMax Paradigm for 20 min with excitation at 485 nm and emission at 535 nm. Copied raw data (slope) from Reader to obtain inhibition values in Excel using equation (1): […]
Max signal was obtained from the action of Enzyme and Substrate. Min signal was obtained from the Substrate only. To fit the data in XLFit excel add-in version 5.4.0.8 to obtain IC50 values used equation (2): […]
Y is % inhibition and X is compound concentration.

T1 sequence (Q93009 whole entry): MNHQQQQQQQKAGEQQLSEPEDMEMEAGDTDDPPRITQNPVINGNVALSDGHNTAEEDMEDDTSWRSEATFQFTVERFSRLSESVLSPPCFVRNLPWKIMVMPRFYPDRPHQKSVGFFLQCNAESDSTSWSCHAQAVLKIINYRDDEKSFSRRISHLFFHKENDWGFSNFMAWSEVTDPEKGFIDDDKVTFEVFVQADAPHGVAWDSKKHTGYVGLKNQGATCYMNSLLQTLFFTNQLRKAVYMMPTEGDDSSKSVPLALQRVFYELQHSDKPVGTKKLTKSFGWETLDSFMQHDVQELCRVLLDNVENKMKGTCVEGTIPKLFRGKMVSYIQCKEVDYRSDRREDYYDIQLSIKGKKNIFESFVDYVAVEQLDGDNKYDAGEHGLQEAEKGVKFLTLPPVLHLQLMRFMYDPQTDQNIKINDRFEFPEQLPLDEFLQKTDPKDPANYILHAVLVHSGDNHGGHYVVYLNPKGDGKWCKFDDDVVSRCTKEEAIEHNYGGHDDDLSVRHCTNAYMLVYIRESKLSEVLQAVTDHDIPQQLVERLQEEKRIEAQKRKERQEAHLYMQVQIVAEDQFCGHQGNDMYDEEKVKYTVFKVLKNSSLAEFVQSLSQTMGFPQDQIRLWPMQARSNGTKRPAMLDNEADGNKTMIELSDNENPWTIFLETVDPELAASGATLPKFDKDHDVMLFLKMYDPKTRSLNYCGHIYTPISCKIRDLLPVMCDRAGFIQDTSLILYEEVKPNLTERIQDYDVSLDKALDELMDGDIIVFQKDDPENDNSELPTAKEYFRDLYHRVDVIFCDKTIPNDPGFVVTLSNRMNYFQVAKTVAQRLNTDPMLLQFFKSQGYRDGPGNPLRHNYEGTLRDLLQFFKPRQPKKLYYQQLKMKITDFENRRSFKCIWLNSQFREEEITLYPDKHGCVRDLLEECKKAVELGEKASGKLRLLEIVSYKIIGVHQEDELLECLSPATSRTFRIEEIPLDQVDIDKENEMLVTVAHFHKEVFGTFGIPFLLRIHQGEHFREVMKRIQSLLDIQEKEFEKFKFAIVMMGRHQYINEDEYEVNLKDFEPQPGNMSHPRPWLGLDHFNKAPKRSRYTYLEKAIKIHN

SMILES	IC50 [nM]
CN(C)CCCOc1ccc2c(=O)n(CC3(O)CCN(C(=O)[C@@H](CCCNC(=O)c4ccc5c(Cl)c(CO)cnc5c4)Cc4ccccc4)CC3)cnc2c1	< 20
CN(C)CCCOc1ccc2c(=O)n(CC3(O)CCN(C(=O)[C@H](CCCNC(=O)c4ccc5c(Cl)c(C(F)F)cnc5c4)Cc4ccccc4)CC3)cnc2c1 [Compound 130]	< 20
O=C(NCCC[C@H](Cc1ccccc1)C(=O)N1CCC(O)(Cn2cnc3cc(-c4ncc(CN5CCNCC5)o4)ccc3c2=O)CC1)c1ccc2c(Cl)cc(C3CC3)nc2c1 [Compound 135]	20 to 100
CN(C)CCC(=O)Nc1ccc2c(=O)n(CC3(O)CCN(C(=O)C(CCCNc4cccc(-c5cc(Cl)ccn5)c4)Cc4ccccc4)CC3)cnc2c1 (stereo not shown) [Compound 46]	> 1000
N[C@@H](c1ccc(-n2ncc3c(=O)n(CC4(O)CCN(C(=O)C(CCCNC(=O)c5ccc6c(Cl)ccnc6c5)Cc5ccccc5)CC4)cnc32)cc1)C(F)(F)F (stereo partly shown) [Compound 9, N-(5-(4-((1-(4-(1-amino-2,2,2-trifluoroethyl)phenyl)-4-oxo-1H-pyrazolo[3,4-d]pyrimidin-5(4H)-yl)methyl)-4-hydroxypiperidin-1-yl)-4-benzyl-5-oxopentyl)-4-chloroquinoline-7-carboxamide]	20 to 100
Cc1cc(Cl)c2ccc(C(=O)NCCC[C@@H](Cc3ccccc3)C(=O)N3CCC(O)(Cn4cnc5cc(NC(=O)CCN(C)C)ccc5c4=O)CC3)cc2n1 [Compound 51, (S)—N-(4-benzyl-5-(4-((7-(3-(dimethylamino)propanamido)-4-oxoquinazolin-3(4H)-yl)methyl)-4-hydroxypiperidin-1-yl)-5-oxopentyl)-4-chloro-2-methylquinoline-7-carboxamide]	20 to 100
COc1cc(Cl)nc2cc(C(=O)NCCCC(Cc3ccccc3)C(=O)N3CCC(O)(Cn4cnc5cc(NC(=O)CCN(C)C)ccc5c4=O)CC3)ccc12 (stereo not shown) [Compound 67]	> 1000
O=C(CCN1CCNCC1)Nc1ccn2c(=O)c(CN3CCN(C(=O)[C@@H]4CCN(CCNC(=O)c5ccc6c(Cl)ccnc6c5)C[C@H]4c4ccccc4)CC3)cnc2c1 [Compound 100]	> 1000
O=C(NCCN1CCC(C(=O)N2CCC(O)(Cn3cnc4cc(OCCN5CCNCC5)ccc4c3=O)CC2)C(c2ccccc2)C1)c1ccc2c(Cl)cc(C3CC3)nc2c1 (stereo not shown) [Compound 107]	20 to 100
Nc1cccc(-n2ncc3c(=O)n(CC4(O)CCN(C(=O)C(CCCNC(=O)c5ccc6c(Cl)ccnc6c5)Cc5ccccc5)CC4)cnc32)c1 (stereo not shown) [Compound 8, N-(5-(4-((1-(3-aminophenyl)-4-oxo-1H-pyrazolo[3,4-d]pyrimidin-5(4H)-yl)methyl)-4-hydroxypiperidin-1-yl)-4-benzyl-5-oxopentyl)-4-chloroquinoline-7-carboxamide]	20 to 100
CN(C)CCCOc1ccc2c(=O)n(CC3(O)CCN(C(=O)C(Cn4ccc(F)n4)N(C)CCNC(=O)c4ccc5c(Cl)cc(C6CC6)nc5c4)CC3)cnc2c1 (stereo not shown)	100 to 1000
COc1cc(Cl)c2ccc(C(=O)NCCCC(Cc3ccccc3)C(=O)N3CCC(O)(Cn4cnc5cc(NC(=O)CCN(C)C)ccc5c4=O)CC3)cc2n1 (stereo not shown) [Compound 66]	> 1000
CN(C)CCOc1ccc2ncn(CC3(O)CCN(C(=O)C(CCCNC(=O)c4ccc5c(Cl)ccnc5c4)Cc4ccccc4)CC3)c(=O)c2c1 (stereo not shown) [Compound 39, N-(4-benzyl-5-(4-((6-(2-(dimethylamino)ethoxy)-4-oxoquinazolin-3(4H)-yl)methyl)-4-hydroxypiperidin-1-yl)-5-oxopentyl)-4-chloroquinoline-7-carboxamide]	> 1000
CN(C)CCCOc1ccc2c(=O)n(CC3(O)CCN(C(=O)[C@H](CCCNC(=O)c4ccc5c(Cl)c(F)cnc5c4)Cc4ccccc4)CC3)cnc2c1 [Compound 131]	100 to 1000
O=C(NCCN1CC[C@@H](C(=O)N2CCC(O)(Cn3cnc4cc(-c5nc(CN6CCNCC6)co5)ccc4c3=O)CC2)[C@H](c2ccccc2)C1)c1ccc2c(Cl)ccnc2c1 [Compound 144]	20 to 100
Cc1cc(Cl)n2cc(C(=O)NCCCC(Cc3ccccc3)C(=O)N3CCC(O)(Cn4cnc5cc(NC(=O)CCN(C)C)ccc5c4=O)CC3)cc2n1 (stereo not shown) [Compound 45, N-(4-benzyl-5-(4-((7-(3-(dimethylamino)propanamido)-4-oxoquinazolin-3(4H)-yl)methyl)-4-hydroxypiperidin-1-yl)-5-oxopentyl)-4-chloro-2-methylpyrrolo[1,2-a]pyrimidine-7-carboxamide]	> 1000
O=C(NCCC1CC[C@@H](C(=O)N2CCC(O)(Cn3cnc4cc(-c5ncc(CN6CCNCC6)o5)ccc4c3=O)CC2)[C@H](c2ccccc2)C1)c1ccc2c(Cl)ccnc2c1 (stereo partly shown)	20 to 100
Cc1cc(Cl)c2ccc(C(=O)NCCC[C@H](Cc3ccccc3)C(=O)N3CCC(O)(Cn4cnc5cc(NC(=O)CCN(C)C)ccc5c4=O)CC3)cc2n1 [Compound 50, (R)—N-(4-benzyl-5-(4-((7-(3-(dimethylamino)propanamido)-4-oxoquinazolin-3(4H)-yl)methyl)-4-hydroxypiperidin-1-yl)-5-oxopentyl)-4-chloro-2-methylquinoline-7-carboxamide]	> 1000
CN(C)CCCOc1ccc2c(=O)n(CC3(O)CCN(C(=O)C(Cc4ccccc4)N(C)CCNC(=O)c4ccc5c(Cl)cc(C6CC6)nc5c4)CC3)cnc2c1 (stereo not shown)	100 to 1000
O=C(NCCC[C@H](Cc1ccccc1)C(=O)N1CCC(O)(Cn2cnc(NCCN3CCCC3)cc2=O)CC1)c1ccc2c(Cl)ccnc2c1 [Compound 12, N-(4-benzyl-5-(4-hydroxy-4-((6-oxo-4-(2-(pyrrolidin-1-yl)ethylamino)pyrimidin-1(6H)-yl)methyl)piperidin-1-yl)-5-oxopentyl)-4-chloroquinoline-7-carboxamide]	> 1000

Results, then the compound that gave them:

IC50 [nM]	SMILES
> 1000	CN(C)CC(=O)Nc1ccc2c(=O)n(CC3(O)CCN(C(=O)[C@H]4CC[C@H](NC(=O)c5ccc6c(Cl)ccnc6c5)CC4)CC3)cnc2c1 [Compound 35, 4-chloro-N-((1R,4R)-4-(4-((7-(2-(dimethylamino)acetamido)-4-oxoquinazolin-3(4H)-yl)methyl)-4-hydroxypiperidine-1-carbonyl)cyclohexyl)quinoline-7-carboxamide]
100 to 1000	C=CC(=O)Nc1ccc(C(F)(F)F)cc1N1CCC(C(=O)N2CCC(O)(Cn3cnc4cc(NC(=O)CCN5CCN(C)CC5)ccc4c3=O)CC2)C(c2ccccc2)C1 (stereo not shown) [Compound 104]
> 1000	CN(C)CCC(=O)Nc1ccc2c(=O)n(CC3(O)CCN(C(=O)C(CCCNC(=O)c4ccc5c(Cl)nccc5c4)Cc4ccccc4)CC3)cnc2c1 (stereo not shown) [Compound 68]
> 1000	CCS(=O)(=O)Nc1ccccc1-c1ccc(C(=O)N2CCC(O)(Cn3cnc4cc(NC(=O)CCN5CCN(C)CC5)ccc4c3=O)CC2)cc1 [Compound 25]
20 to 100	CN(C)CCC(=O)Nc1ccc2c(=O)n(CC3(O)CCN(C(=O)C(CCCNC(=O)c4ccc5c(Cl)c6c(nc5c4)CCOC6)Cc4ccccc4)CC3)cnc2c1 (stereo not shown) [Compound 90]
> 1000	CN1CCN(CCC(=O)Nc2ccc3c(=O)n(CC4(O)CCN(C(=O)[C@H](CCCNC(=O)c5ccc6c(Cl)ccnc6c5)Cc5ccccc5)CC4)cnc3c2)CC1 [Compound 58, (R)—N-(4-benzyl-5-(4-hydroxy-4-((7-(3-(4-methylpiperazin-1-yl)propanamido)-4-oxoquinazolin-3(4H)-yl)methyl)piperidin-1-yl)-5-oxopentyl)-4-chloroquinoline-7-carboxamide]
< 20	CN(C)CCC(=O)Nc1ccc2c(=O)n(CC3(O)CCN(C(=O)[C@@H](CCCNC(=O)c4ccc5c(Cl)c6c(nc5c4)CN(C)CC6)Cc4ccccc4)CC3)cnc2c1 [Compound 41]
> 1000	CN1CCN(CCn2ncc3ncn(CC4(O)CCN(C(=O)C(CCCNC(=O)c5ccc6c(Cl)ccnc6c5)Cc5ccccc5)CC4)c(=O)c32)CC1 (stereo not shown) [Compound 28]
> 1000	CN(C)CCC(=O)Nc1ccc2c(=O)n(CC3(O)CCN(C(=O)[C@H]4CCN(CCNC(=O)c5ccc6c(Cl)ccnc6c5)C[C@@H]4c4ccccc4)CC3)cnc2c1 [Compound 74]
< 20	CN1CCN(CCC(=O)Nc2ccc3c(=O)n(CC4(O)CCN(C(=O)C(CCCNC(=O)c5ccc6c(Cl)c7c(nc6c5)CCCC7)Cc5ccccc5)CC4)cnc3c2)CC1 (stereo not shown)
100 to 1000	CN1CCN(CCC(=O)Nc2ccc3c(=O)n(CC4(O)CCN(C(=O)C(CCCNC(=O)c5ccc6c(Cl)cc(-c7cccnc7)nc6c5)Cc5ccccc5)CC4)cnc3c2)CC1 (stereo not shown) [Compound 14, N-(4-benzyl-5-(4-hydroxy-4-((7-(3-(4-methylpiperazin-1-yl)propanamido)-4-oxoquinazolin-3(4H)-yl)methyl)piperidin-1-yl)-5-oxopentyl)-4-chloro-2-(pyridin-3-yl)quinoline-7-carboxamide]
